Measured values reported in patent US9670469B2, “UDP-glycosyltransferase derived from ginseng and use thereof” (KOREA ADVANCED INSTITUTE OF SCIENCE AND TECHNOLOGY, priority 2012, dated 2017).

Legend:
[1] = biological target: T1, PgUGT74A1 (Panax ginseng, UniProt A0A0A6ZFR4); experiment: In vitro glycosyltransferase assay with purified recombinant PgUGT74A1 and UDP-glucose; assay type: biochemical; settings: for ginsenoside into which the substrate is converted by PgUGT74A1: 30 μg enzyme, 5 mM ginsenoside, 50 mM UDP-glucose, 35° C., 12 hours
T1 construct: GST (N); made in house; host or cells: E. coli BL21-CodonPlus (DE3)-RIL
T1 sequence (A0A0A6ZFR4 1-451): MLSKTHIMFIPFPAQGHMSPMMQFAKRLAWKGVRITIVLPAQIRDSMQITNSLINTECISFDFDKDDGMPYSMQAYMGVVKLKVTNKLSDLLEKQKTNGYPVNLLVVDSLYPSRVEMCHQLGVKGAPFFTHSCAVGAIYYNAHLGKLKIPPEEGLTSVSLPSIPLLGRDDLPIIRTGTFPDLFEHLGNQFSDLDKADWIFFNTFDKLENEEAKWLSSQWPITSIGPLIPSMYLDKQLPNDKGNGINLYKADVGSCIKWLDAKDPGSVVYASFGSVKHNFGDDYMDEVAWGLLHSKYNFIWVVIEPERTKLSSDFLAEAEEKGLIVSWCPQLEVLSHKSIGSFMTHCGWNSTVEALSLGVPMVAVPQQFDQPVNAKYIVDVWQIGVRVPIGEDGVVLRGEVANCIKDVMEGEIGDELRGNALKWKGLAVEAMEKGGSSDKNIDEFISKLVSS
Procedure: (§1) A glycosyltransferase assay was performed in a reaction buffer (10 mM PBS buffer, pH 7) containing the purified PgUGT74A1 or PgUGT94B1 (30 μg), a ginsenoside compound (5 mM) and UDP-glucose (50 mM).
(§2) The reaction mixture was incubated at 35° C. for 12 hours, and then the products were analyzed by thin-layer chromatography (TLC) or high performance liquid chromatography (HPLC).
(§3) TLC analysis was performed using a mobile phase (acetone:methanol:DDW=65:35:10 vol/vol) and a 60F254 silica gel plate (Merck, Germany). The resolved product on the TLC plate was detected by spraying the plate with 10% (vol/vol) sulfuric acid (H2SO4) and heating it at 110° C. for 5 minutes.
(§4) HPLC analysis was performed using ODS (2) C18 column (Phenomenex, USA). Water and acetonitrile gradient application time; and a component ratio are as follows: at a flow rate of 1 ml per minute for 0 minute, 68% water and 32% acetonitrile; 8 minutes, 35% water and 65% acetonitrile; 12 minutes, 0% water and 100% acetonitrile; 20 minutes, 0% water and 100% acetonitrile; 20.1 minutes, 68% water and 32% acetonitrile; and 28 minutes, 68% water and 32% acetonitrile.
(§5) Ginsenosides were detected by using a UV-detector (Younglin, Korea) at a wavelength of 203 nm.
First, the recombinant PgUGT of Example 1, PgUGT74A1, was incubated with 10 different types of ginsenosides (PPD, C-K, Rh2, F2, Rg3, Rd, Rg2, Rh1, F1 and PPT) in the presence of UDP-glucose, and the products converted by the recombinant PgUGT were analyzed by TLC.

[2] = biological target: T2, PgUGT94B1 (Panax ginseng, UniProt A0A0A6ZFY4); experiment: In vitro glycosyltransferase assay with purified recombinant PgUGT94B1 and UDP-glucose; assay type: biochemical; settings: 30 μg enzyme, 5 mM ginsenoside, 50 mM UDP-glucose, 35° C., 12 hours
T2 construct: GST (N); made in house; host or cells: E. coli BL21-CodonPlus (DE3)-RIL
T2 sequence (A0A0A6ZFY4 1-442): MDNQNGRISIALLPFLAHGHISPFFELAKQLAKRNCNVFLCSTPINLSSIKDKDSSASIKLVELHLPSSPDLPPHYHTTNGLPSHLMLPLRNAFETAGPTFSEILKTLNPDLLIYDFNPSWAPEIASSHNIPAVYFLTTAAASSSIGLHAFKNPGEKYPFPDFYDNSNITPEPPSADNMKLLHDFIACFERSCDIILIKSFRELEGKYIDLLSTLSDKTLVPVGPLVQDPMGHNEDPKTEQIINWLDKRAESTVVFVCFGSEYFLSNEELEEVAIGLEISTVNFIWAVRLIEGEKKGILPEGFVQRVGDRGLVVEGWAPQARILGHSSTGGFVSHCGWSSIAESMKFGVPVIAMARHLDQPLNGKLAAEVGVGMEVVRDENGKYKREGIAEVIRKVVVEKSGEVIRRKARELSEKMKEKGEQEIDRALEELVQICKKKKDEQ
Procedure: as §1, §2, §3, §4, §5
First, the recombinant PgUGT of Example 1, PgUGT94B1, was incubated with 10 different types of ginsenosides (PPD, C-K, Rh2, F2, Rg3, Rd, Rg2, Rh1, F1 and PPT) in the presence of UDP-glucose, and then the products converted by the recombinant PgUGT were analyzed by TLC.

[3] = system: PgUGT74A1 and PgUGT94B1; experiment: Both enzymes reacted with the substrate in a single reaction tube, HPLC; assay type: biochemical, Panax ginseng; settings: UDP-Glc
Procedure: PPD (upper panel) or C-K (lower panel) was incubated with both of PgUGT74A1 and PgUGT94B1 in the presence of UDP-Glc. Then the reaction mixture was analyzed by HPLC. […] Rg3 and Rd converted by the above two enzymes are marked as black triangles;
as §1, §2, §4, §5
In order to confirm this, the above two enzymes were reacted with PPD as a substrate in a single reaction tube. […] In addition, the two enzymes were reacted with C-K as a substrate in a single reaction tube.

[4] = system: PgUGT74A1; experiment: Quantitative RT-PCR of PgUGT74A1 in ginseng leaf after MeJA spraying; assay type: in vivo, Panax ginseng; settings: ginseng leaves, 200 μM MeJA sprayed everyday for 5 days, sampled 6th day; normalized to tubulin
Procedure: (§6) Total RNA was isolated from the leaf or root of 15-month-old ginseng using a spectrum plant total RNA kit (Sigma-Aldrich). 200 μM methyl jasmonate (MeJA) was sprayed onto the leaves of ginseng everyday for a total of 5 days, and samples were collected on the 6th day. The 1 μg of total RNA was used for cDNA synthesis.
(§7) Expression levels of different genes were examined by a quantitative RT-PCR using the primer sets listed in the following Table 2, and the results were normalized to the expression level of tubulin.
(§8) The 15-month old ginseng grown in a growth chamber under LD conditions was collected, and MeJA was sprayed onto its leaves everyday for a total of 5 days. To analyze expression level of the ginsenoside biosynthetic genes, samples were collected on the 6th days. […] However, expression of PgPPTS was not induced by MeJA under the conditions of the present invention.

[5] = system: ginseng; experiment: Concentrations of 4 major ginsenosides after spraying MeJA onto the leaf of ginseng; assay type: in vivo, Panax ginseng
From the text: MeJA was sprayed on the leaf everyday for a total of 5 days, and on the 6th day after the start of the treatment, samples were collected for the expression analysis. […] Error bars show a standard deviation (SD) of three biological replicates; and
as §8
In this regard, the concentrations of 4 major ginsenosides were measured after spraying MeJA onto the leaf of ginseng. The treatment of MeJA increased the concentrations of two PPD-type ginsenosides, Rd and Rb1, by 1.55 and 1.14 times respectively (FIG. 6c). In addition, the treatment of MeJA increased the concentrations of two PPT-type ginsenosides, Rg1 and Re, by 2.61 and 1.45 times respectively.

[6] = system: PgUGT94B1; experiment: Quantitative RT-PCR of PgUGT94B1 in ginseng leaf after MeJA spraying; assay type: in vivo, Panax ginseng; settings: ginseng leaves, 200 μM MeJA sprayed everyday for 5 days, sampled 6th day; normalized to tubulin
Procedure: as §6, §7, §8

[7] = system: PgDS (dammarenediol-II synthase); experiment: Quantitative RT-PCR of PgDS in ginseng leaf after MeJA spraying; assay type: in vivo, Panax ginseng; settings: ginseng leaves, 200 μM MeJA sprayed everyday for 5 days, sampled 6th day; normalized to tubulin
Procedure: as §6, §7, §8

[8] = system: PgPPTS (protopanaxatriol synthase); experiment: Quantitative RT-PCR of PgPPTS in ginseng leaf after MeJA spraying; assay type: in vivo, Panax ginseng; settings: ginseng leaves, 200 μM MeJA sprayed everyday for 5 days, sampled 6th day; normalized to tubulin
Procedure: as §6, §7, §8

[9] = system: PgPPDS (protopanaxadiol synthase); experiment: Quantitative RT-PCR of PgPPDS in ginseng leaf after MeJA spraying; assay type: in vivo, Panax ginseng; settings: ginseng leaves, 200 μM MeJA sprayed everyday for 5 days, sampled 6th day; normalized to tubulin
Procedure: as §6, §7, §8

Structure (SMILES)	ginsenoside into which the substrate is converted by PgUGT94B1 ([2]; HPLC)	ginsenoside into which the substrate is converted by PgUGT74A1 plus PgUGT94B1 [3]	ginsenoside into which the substrate is converted by PgUGT74A1 ([1]; TLC)	ginsenoside into which the substrate is converted by PgUGT94B1 ([2]; TLC)	ginsenoside into which the substrate is converted by PgUGT74A1 ([1]; HPLC)	further results
CC(C)=CCC[C@](C)(O)[C@H]1CC[C@]2(C)[C@@H]1[C@H](O)C[C@@H]1[C@@]3(C)CC[C@H](O)C(C)(C)[C@@H]3[C@@H](O)C[C@]12C [PPT, Protopanaxatriol]	–	–	–	–	–	glycosylation by PgUGT74A1 of the hydroxyl groups at the C-3, C-6, C-12 and C-20 positions ([1]; regioselectivity, PPT): not glycosylated
CC(C)=CCC[C@](C)(O[C@@H]1O[C@H](CO)[C@@H](O)[C@H](O)[C@H]1O)[C@H]1CC[C@]2(C)[C@@H]1[C@H](O)C[C@@H]1[C@@]3(C)CC[C@H](O)C(C)(C)[C@@H]3CC[C@]12C [C-K, Compound K]	did not convert	Rd	ginsenoside F2	–	–	–
CC/C=C\C[C@H]1C(=O)CC[C@@H]1CC(=O)OC [MeJA, Methyl (1R,2R)-3-Oxo-2-(2Z)-2-pentenyl-cyclopentaneacetate]	–	–	–	–	–	expression level of PgUGT74A1 [4]: higher expression level; increase of the concentration of ginsenoside Rb1 ([5]; PPD-type ginsenoside): 1.14 times; increase of the concentration of ginsenoside Rd ([5]; PPD-type ginsenoside): 1.55 times; increase of the concentration of ginsenoside Re ([5]; PPT-type ginsenoside): 1.45 times; increase of the concentration of ginsenoside Rg1 ([5]; PPT-type ginsenoside): 2.61 times; expression level of PgUGT94B1 [6]: higher expression level; expression of PgDS [7]: enhanced; expression of PgPPTS [8]: not induced; expression of PgPPDS [9]: enhanced
CC(C)=CCC[C@](C)(O[C@@H]1O[C@H](CO)[C@@H](O)[C@H](O)[C@H]1O)[C@H]1CC[C@]2(C)[C@@H]1[C@H](O)C[C@@H]1[C@@]3(C)CC[C@H](O[C@@H]4O[C@H](CO)[C@@H](O)[C@H](O)[C@H]4O)C(C)(C)[C@@H]3CC[C@]12C [ginsenoside F2]	Rd	–	–	ginsenoside Rd	did not convert	–
CC(C)=CCC[C@](C)(O)[C@H]1CC[C@]2(C)[C@@H]1[C@H](O)C[C@@H]1[C@@]3(C)CC[C@H](O[C@@H]4O[C@H](CO)[C@@H](O)[C@H](O)[C@H]4O)C(C)(C)[C@@H]3CC[C@]12C [ginsenoside Rh2]	ginsenoside Rg3	–	–	ginsenoside Rg3	did not convert	–
CC(C)=CCCC(C)(O)[C@H]1CC[C@]2(C)[C@@H]1[C@H](O)C[C@@H]1[C@@]3(C)CC[C@H](O)C(C)(C)[C@@H]3CC[C@]12C (stereo in doubt) [PPD, Protopanaxadiol]	did not convert	Rg3	ginsenoside Rh2	–	ginsenoside Rh2	glycosylation by PgUGT74A1 of the hydroxyl groups at the C-12 and C-20 positions ([1]; regioselectivity, positions other than C-3 of PPD): not glycosylated
